SMILES strings stand for the structures.

Chain of human LPA1 receptor (Q92633 whole entry, the tested form may be a part): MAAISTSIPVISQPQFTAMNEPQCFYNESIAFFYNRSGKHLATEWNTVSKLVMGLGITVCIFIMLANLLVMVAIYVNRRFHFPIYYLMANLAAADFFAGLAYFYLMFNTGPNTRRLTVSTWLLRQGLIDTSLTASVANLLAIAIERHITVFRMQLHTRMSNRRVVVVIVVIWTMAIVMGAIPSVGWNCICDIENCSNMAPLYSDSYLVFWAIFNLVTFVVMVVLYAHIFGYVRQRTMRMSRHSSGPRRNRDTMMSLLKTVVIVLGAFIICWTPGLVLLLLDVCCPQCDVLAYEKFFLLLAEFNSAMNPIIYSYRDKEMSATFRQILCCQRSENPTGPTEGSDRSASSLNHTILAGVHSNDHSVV

For the assay, the target named is human LPA1 receptor (Homo sapiens (Human), UniProt Q92633). The assay can be described thus: Beta-arrestin recruitment assay to determine IC50 values for human LPAR1. Conditions: antagonist mode, Tango EDG2-bla U2OS cells, LPA 18:1 500 nM final. Format: cell-based. The method, boiled down:
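Tango EDG2-bla U2OS cells: LPA-driven beta-arrestin/TEV protease recruitment releases Gal4-VP16, inducing beta-lactamase reporter read with live-cell substrate. Cells seeded 20 h at 37 °C beforehand. IC50 is antagonist concentration inhibiting 50% of maximal response.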
For orientation: Activated receptors often draw arrestin, which recruitment assays turn into a signal.
What is called IC50 is the midpoint of a concentration-inhibition curve. Low readings indicate greater potency, high ones weaker potency. For `Cc1ccc(NC(=O)C2(c3ccccc3C(C)C)CN(C(=O)C[C@](C)(O)C(=O)O)C2)c(OC(F)F)n1` [Ex 12-117, (S)-4-(3-((2-(difluoromethoxy)-6-methylpyridin-3-yl)carbamoyl)-3-(2-isopropylphenyl)azetidin-1-yl)-2-hydroxy-2-methyl-4-oxobutanoic acid], the IC50 came out at 7 nM.

The compound `Cc1ccc(NC(=O)C2(c3ccccc3C(C)C)CN(C(=O)[C@H](O)[C@@H](O)C(=O)O)C2)c(OC(F)F)n1` [Ex 12-118, (2R,3R)-4-(3-((2-(difluoromethoxy)-6-methylpyridin-3-yl)carbamoyl)-3-(2-isopropylphenyl)azetidin-1-yl)-2,3-dihydroxy-4-oxobutanoic acid] showed an IC50 of 30 nM. On to `Cc1ccc(NC(=O)C2(c3ccccc3C(C)C)CN(C(=O)CCC(=O)NS(C)(=O)=O)C2)c(OC(F)F)n1` [Ex 12-119, N-(2-(difluoromethoxy)-6-methylpyridin-3-yl)-3-(2-isopropylphenyl)-1-(4-(methylsulfonamido)-4-oxobutanoyl)azetidine-3-carboxamide], for which half-maximal inhibition (IC50) required 35 nM. In the case of `Cc1ccc(NC(=O)C2(c3ccccc3C(C)C)CN(C(=O)CCC(O)C(F)(F)F)C2)c(OC(F)F)n1` (centres unmarked) [Ex 12-120, N-(2-(difluoromethoxy)-6-methylpyridin-3-yl)-3-(2-isopropylphenyl)-1-(5,5,5-trifluoro-4-hydroxypentanoyl)azetidine-3-carboxamide] it was 11 nM. On to `Cc1ccc(NC(=O)C2(c3ccccc3C(C)C)CN(C(=O)CCOCCOCC(=O)O)C2)c(OC(F)F)n1` [Ex 12-121, 2-(2-(3-(3-((2-(difluoromethoxy)-6-methylpyridin-3-yl)carbamoyl)-3-(2-isopropylphenyl)azetidin-1-yl)-3-oxopropoxy)ethoxy)acetic acid], for which inhibition was half-maximal at 310 nM (IC50).

`Cc1ccc(NC(=O)C2(c3ccccc3C(C)C)CN(C(=O)CC3(C(=O)O)CCOCC3)C2)c(OC(F)F)n1` [Ex 12-122, 4-(2-(3-((2-(difluoromethoxy)-6-methylpyridin-3-yl)carbamoyl)-3-(2-isopropylphenyl)azetidin-1-yl)-2-oxoethyl)tetrahydro-2H-pyran-4-carboxylic acid]: inhibition was half-maximal at 15 nM (IC50). `Cc1ccc(NC(=O)C2(c3ccccc3C(C)C)CN(C(=O)CC3(C(=O)O)CCOC3)C2)c(OC(F)F)n1` (centres unmarked) [Ex 12-123, 3-(2-(3-((2-(difluoromethoxy)-6-methylpyridin-3-yl)carbamoyl)-3-(2-isopropylphenyl)azetidin-1-yl)-2-oxoethyl)tetrahydrofuran-3-carboxylic acid] returned an IC50 of 41 nM. Consider `Cc1ccc(NC(=O)C2(c3ccccc3C(C)C)CN(C(=O)CC3(C(=O)O)CCN(C)CC3)C2)c(OC(F)F)n1` [Ex 12-124, 4-(2-(3-((2-(difluoromethoxy)-6-methylpyridin-3-yl)carbamoyl)-3-(2-isopropylphenyl)azetidin-1-yl)-2-oxoethyl)-1-methylpiperidine-4-carboxylic acid], for which half-maximal inhibition (IC50) was put at 56 nM. `CONC(=O)CC(=O)N1CC(C(=O)Nc2ccc(C)nc2OC(F)F)(c2ccccc2C(C)C)C1` [Ex 12-125, N-(2-(difluoromethoxy)-6-methylpyridin-3-yl)-3-(2-isopropylphenyl)-1-(3-(methoxyamino)-3-oxopropanoyl)azetidine-3-carboxamide] showed an IC50 of 35 nM. Consider `Cc1ccc(NC(=O)C2(c3ccccc3C(C)C)CN(C(=O)CN3CC(=O)NC3=O)C2)c(OC(F)F)n1` [Ex 12-126, N-(2-(difluoromethoxy)-6-methylpyridin-3-yl)-1-(2-(2,4-dioxoimidazolidin-1-yl)acetyl)-3-(2-isopropylphenyl)azetidine-3-carboxamide], for which it took 46 nM to reach half-maximal inhibition (IC50). In the case of `Cc1ccc(NC(=O)C2(c3ccccc3C(C)C)CN(C(=O)CNS(N)(=O)=O)C2)c(OC(F)F)n1` [Ex 12-128, N-(2-(difluoromethoxy)-6-methylpyridin-3-yl)-3-(2-isopropylphenyl)-1-(sulfamoylglycyl)azetidine-3-carboxamide] it was 10 nM.

These data come from patent US12344597B2, “Alkoxy-substituted pyridinyl derivatives as LPA1 receptor antagonists and their use in the treatment of fibrosis” (IDORSIA PHARMACEUTICALS LTD, priority 2018, dated 2025).
